Structures are written as SMILES.

One molecule from US9585962B1, “Treatment for actinic keratoses” (priority 2013, dated 2017) can be followed below.

This data set relates to actinic keratoses. The settings on record: 0.1% in a dermatologically acceptable cream base.

Take `COc1cc2c(c(OC)c1OC)-c1ccc(OC)c(=O)cc1[C@@H](NC(C)=O)CC2` [colchicine]: the actinic keratoses cleared was 35-40% and the skin irritation entry is “significant level of skin irritation”.
